Source: paper PMC11994961, “In Vivo pharmacokinetic interactions of ribociclib with rivaroxaban and apixaban in rats: implications for increased drug exposure and dose adjustments” (Frontiers in Pharmacology, 2025)
Read-outs that look alike come from different tables or passages of the source. Each block holds one compound with its values, some of them ahead of it.

Columns and labels:
[1] = parameters: method as in Samant et al., 2020; details: ref Samant et al., 2020, cited from earlier work
CYP3A4 = system: CYP3A4; parameters: method as in Sorf et al., 2018; details: in vitro; ref Sorf et al., 2018; read-out: half-maximal inhibitory concentration (IC50) against CYP3A4; cited from earlier work
[2] = Pharmacokinetic study of rivaroxaban in rats, alone and with ribociclib (UPLC-MS/MS plasma levels); type: in vivo, Sprague-Dawley rats; details: for CL/F: read-out: CLz/F (converted); for MRT inf: read-out: MRT0- ∞; for MRT last: read-out: MRT0-t; for Vd/F: read-out: Vz/F
Protocol: Experimental animals were randomly divided into nine groups (n = 6, Table 1). Ribociclib was suspended in methylcellulose (MC), rivaroxaban was prepared in hydroxypropyl methylcellulose (HPMC), and apixaban was suspended in 5% DMSO in water. To achieve steady-state blood concentrations, a drug typically requires five to seven half-lives. Based on this principle, ribociclib was administered orally for eight consecutive days, while rivaroxaban and apixaban were administered orally for five consecutive days to ensure steady-state concentrations were reached before further analysis.
Approximately 0.1 mL of blood was collected into heparinized tubes via the orbitalat specified time points before and after the final drug administration. For apixaban, blood samples were collected at 0, 0.083, 0.167, 0.25, 0.333, 0.5, 0.75, 1, 3, 5, 7, 10, and 12 h. For rivaroxaban, sampling was conducted at 0, 0.167, 0.333, 0.5, 0.75, 1.5, 2, 3, 4, 5, 6, 8, 10, 12, and 24 h. For ribociclib, samples were taken at 0, 0.5, 1, 2, 4, 5, 6, 8, 10, 12, 24, and 48 h. Blood samples were centrifuged at 3,500 rpm for 10 min, and the supernatant was collected and stored at −80°C until processing for UPLC-MS/MS.
Apixaban and rivaroxaban concentrations in plasma samples were determined using our previously established UPLC-MS/MS method ([Wang et al., 2023]). Ribociclib concentrations were quantified using an LC-30A UPLC system (Shimadzu, Kyoto, Japan) coupled with a Sciex Triple Quad 5500 tandem quadrupole mass spectrometer (AB Sciex, Framingham, MA, United States) equipped with an electrospray ionization interface. Chromatographic separation was performed using a Welch Boltimate column (2.1 mm × 100 mm, 2.7 μm) maintained at 40°C. The mobile phase was composed of water containing 0.1% formic acid (phase A) and acetonitrile (phase B). The flow rate was held constant at 0.3 mL/min. The gradient elution protocol was as follows: 0–2.5 min, 60% B; 2.5–3.5 min, 60%–90% B; 3.5–5.5 min, 90% B; 5.5–5.6 min, 90%–60% B; 5.6–6.6 min, 60% B. The injection volume was 1 μL.
Pharmacokinetic parameters were calculated based on a non-compartmental model using DAS 2.1.1 Software (Mathematical Pharmacology Professional Committee of China, Shanghai, China). The area under the concentration–time curve (AUC), maximum plasma concentration (Cmax), time to maximum plasma concentration (Tmax), the time required to eliminate half of the plasma drug concentration (t1/2), clearance of drug plasma volume per unit time (CLz/F), apparent volume distribution (Vz/F), mean residence time (MRT) and the absorption rate constant (Ka) are all expressed as mean ± standard deviation (SD). SPSS 25.0 statistical software (SPSS Inc., Chicago, IL, United States) was applied to statistically analyze the mainpharmacokinetic parameters. Shapiro-Wilk test was used to assess whether the data were normally distributed, t test was used for parameters conforming to the normal distribution, and Mann-Whitney U test was used for parameters not conforming to the normal distribution. Statistical comparisons were conducted using a analysis of variance, t-test or nonparametric rank-sum test depending on the data type. A P-value <0.05 was deemed statistically significant.

[3] = parameters: method as in Hindley et al., 2023; details: ref Hindley et al., 2023; cited from earlier work
CYP2J2 = system: CYP2J2; parameters: method as in Mueck et al., 2013; details: ref Mueck et al., 2013; cited from earlier work
[4] = parameters: method as in Wang et al., 2023; details: rats, with almonertinib; ref Wang et al., 2023; cited from earlier work
[5] = RIVA 1 mg/kg + multiple doses of RIBO vs RIVA 2 mg/kg alone
[6] = RIVA 2 mg/kg (normal dose) + multiple doses of RIBO vs alone
[7] = RIVA 2 mg/kg + timed RIBO (12 h), RIBO 60 mg/kg for 8 days
[8] = RIVA 2 mg/kg after multiple doses of RIBO vs RIVA 2 mg/kg alone
[9] = RIVA 2 mg/kg with 12-h interval to RIBO vs RIVA 2 mg/kg alone
[10] = Sprague-Dawley, rat, plasma, po, 1 mg/kg, RIVA 1 mg/kg + RIBO 60 mg/kg for 8 days
[11] = Sprague-Dawley, rat, plasma, po, 2 mg/kg, RIVA 2 mg/kg + RIBO 60 mg/kg for 8 days
[12] = Sprague-Dawley, rat, plasma, po, 2 mg/kg, RIVA 2 mg/kg + timed RIBO (12 h), RIBO 60 mg/kg for 8 days
[13] = Sprague-Dawley, rat, plasma, po, 2 mg/kg, oral RIVA 2 mg/kg alone

Structure (SMILES): CN(C)C(=O)c1cc2cnc(Nc3ccc(N4CCNCC4)cn3)nc2n1C1CCCC1 [RIBO, ribociclib]
reduction of AUC ([1]; with rifampicin, a strong CYP3A inducer): 89%
increase of AUC ([1]; with ritonavir, a strong CYP3A inhibitor): 3.2 fold

decrease of CLz/F [2, 5]: 70.97%
decrease of Vz/F [2, 5]: 78.29%
difference in MRT0- ∞ [2, 5]: not statistically significant
difference in Tmax [2, 5]: not statistically significant
increase of AUC0- ∞ [2, 5]: 228.46%
increase of AUC0-t [2, 5]: 230.62%
increase of Cmax [2, 5]: 133.14%
increase of MRT0-t [2, 5]: 30.06%
increase of AUC0- ∞ [2, 6]: ~2.1 fold
increase of AUC0-t (AUC) [2, 6]: about 2.4 fold
increase of Cmax [2, 6]: 1.9 fold
Cmax ([2]; RIVA 2 mg/kg + RIBO 60 mg/kg for 8 days): 838.33 ± 480.92 ng/mL
AUC0- ∞ [2, 7]: 2,217.15 ± 800.81 μg/L*h
Cmax [2, 7]: 454.5 ± 214.88 ng/mL
Vz/F [2, 7]: 3.72 ± 1.98 L/kg
t1/2 [2, 7]: 2.65 ± 1.48 h
decrease of CLz/F [2, 8]: 65.81%
decrease of Vz/F [2, 8]: 82.91%
decrease of t1/2z [2, 8]: 57.09%
difference in MRT0- ∞ [2, 8]: not statistically significant
difference in Tmax [2, 8]: not statistically significant
increase of AUC0- ∞ [2, 8]: 213.79%
increase of AUC0-t [2, 8]: 240.19%
increase of Cmax [2, 8]: 186.93%
increase of MRT0-t [2, 8]: 21.39%
decrease of CLz/F [2, 9]: 34.84%
decrease of Vz/F [2, 9]: 62.61%
difference in Cmax [2, 9]: not statistically significant
difference in MRT0- ∞ [2, 9]: not statistically significant
difference in Tmax [2, 9]: not statistically significant
increase of AUC0- ∞ [2, 9]: 63.03%
increase of AUC0-t [2, 9]: 74.16%
increase of MRT0-t [2, 9]: 22.54%
Cmax ([2]; Sprague-Dawley, rat, plasma, oral RIVA 2 mg/kg alone, read-out: Cmax): 292 ± 67.5 ng/mL
AUC(0-inf) [2, 10]: 4470 ng·h/mL
AUC(0-t) [2, 10]: 3990 ± 445 ng·h/mL
Tmax [2, 10]: 1.92 ± 0.2 h
half-life [2, 10]: 3.34 ± 0.79 h
CL/F [2, 10]: 7.5 mL/min/kg
MRT inf [2, 10]: 5.84 ± 0.81 h
MRT last [2, 10]: 4.5 ± 0.25 h
Vd/F [2, 10]: 2.16 ± 0.04 L/kg
AUC(0-inf) [2, 11]: 4270 ng·h/mL
AUC(0-t) [2, 11]: 4100 ng·h/mL
Tmax [2, 11]: 2.83 ± 0.41 h
half-life [2, 11]: 2.15 ± 0.94 h
CL/F [2, 11]: 8.83 mL/min/kg
MRT inf [2, 11]: 4.74 ± 0.63 h
MRT last [2, 11]: 4.2 ± 0.63 h
Vd/F [2, 11]: 1.7 ± 0.99 L/kg
AUC(0-t) [2, 12]: 2100 ng·h/mL
Tmax [2, 12]: 3 ± 0.63 h
CL/F [2, 12]: 16.8 mL/min/kg
MRT inf [2, 12]: 4.93 ± 1.3 h
MRT last [2, 12]: 4.24 ± 0.69 h
AUC(0-inf) [2, 13]: 1360 ng·h/mL
AUC(0-t) [2, 13]: 1210 ng·h/mL
Tmax [2, 13]: 2.13 ± 0.83 h
half-life [2, 13]: 5.01 ± 3.3 h
CL/F [2, 13]: 25.8 mL/min/kg
MRT last [2, 13]: 3.46 ± 0.43 h
Vd/F [2, 13]: 9.95 ± 4.58 L/kg
Cmax ([2]; Sprague-Dawley, rat, plasma, po, RIVA 1 mg/kg + RIBO 60 mg/kg for 8 days, read-out: Cmax): 681 ± 75.5 ng/mL
AUC at 1 mg/kg versus AUC at 2 mg/kg ([2]; both with multiple doses of RIBO): not significantly different
MRT0- ∞ ([2]; oral RIVA 2 mg/kg alone): 5.31 ± 2.01 h
increase of Cmax ([2]; reduced RIVA 1 mg/kg + multiple doses of RIBO): 1.3 fold
Structure (SMILES): O=C(NC[C@H]1CN(c2ccc(N3CCOCC3=O)cc2)C(=O)O1)c1ccc(Cl)s1 [RIVA, rivaroxaban]
plasma protein binding [3]: approximately 95%
share of total elimination by CYP2J2 (CYP2J2): approximately 14%
increase in AUC [4]: over three fold increases
increase in Cmax [4]: over three fold increases
